Results published in patent publication US9546156B2, “N-bicyclic aryl,N'-pyrazolyl urea, thiourea, guanidine cyanoguanidine compounds as TrkA kinase inhibitors” (Array BioPharma Inc., priority 2012, dated 2017).

Key:
Assay in all cases: Off-target kinase profiling (KinaseProfiler)
Type in all cases: biochemical
Details in all cases: 10 μM, ATP near Km
CAMK1d = molecular target: T1, CAMK1d (Homo sapiens, UniProt Q8IU85)
T1 construct: purchased Millipore, Inc. (KinaseProfiler service)
Outline: (§1)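 One dose only: 10 μM. Kinases assayed in duplicate under near-Km ATP, results given as mean percent-of-control.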

Lck = molecular target: T2, Lck (Homo sapiens, UniProt P06239)
T2 construct: purchased Millipore, Inc. (KinaseProfiler service)
Outline: as §1

JNK2alpha2 = molecular target: T3, JNK2alpha2 (Homo sapiens, UniProt P45984)
T3 construct: purchased Millipore, Inc. (KinaseProfiler service)
Outline: as §1

IRR = molecular target: T4, IRR (Homo sapiens, UniProt P14616)
T4 construct: purchased Millipore, Inc. (KinaseProfiler service)
Outline: as §1

SGK1 = molecular target: T5, SGK1 (Homo sapiens, UniProt O00141, S422D)
T5 construct: purchased Millipore, Inc. (KinaseProfiler service)
Outline: as §1

TrkB = molecular target: T6, TrkB (Homo sapiens, UniProt Q16620)
T6 construct: purchased Millipore, Inc. (KinaseProfiler service)
Outline: as §1

EphA3 = molecular target: T7, EphA3 (Homo sapiens, UniProt P29320)
T7 construct: purchased Millipore, Inc. (KinaseProfiler service)
Outline: as §1

AKT1 = molecular target: T8, AKT1 (Homo sapiens, UniProt P31749)
T8 construct: purchased Millipore, Inc. (KinaseProfiler service)
Outline: as §1

MINK = molecular target: T9, MINK (Homo sapiens, UniProt Q8N4C8)
T9 construct: purchased Millipore, Inc. (KinaseProfiler service)
Outline: as §1

CAMK2b = molecular target: T10, CAMK2b (Homo sapiens, UniProt Q13554)
T10 construct: purchased Millipore, Inc. (KinaseProfiler service)
Outline: as §1

PKCeta = molecular target: T11, PKCeta (Homo sapiens, UniProt P24723)
T11 construct: purchased Millipore, Inc. (KinaseProfiler service)
T11 sequence (P24723 whole entry): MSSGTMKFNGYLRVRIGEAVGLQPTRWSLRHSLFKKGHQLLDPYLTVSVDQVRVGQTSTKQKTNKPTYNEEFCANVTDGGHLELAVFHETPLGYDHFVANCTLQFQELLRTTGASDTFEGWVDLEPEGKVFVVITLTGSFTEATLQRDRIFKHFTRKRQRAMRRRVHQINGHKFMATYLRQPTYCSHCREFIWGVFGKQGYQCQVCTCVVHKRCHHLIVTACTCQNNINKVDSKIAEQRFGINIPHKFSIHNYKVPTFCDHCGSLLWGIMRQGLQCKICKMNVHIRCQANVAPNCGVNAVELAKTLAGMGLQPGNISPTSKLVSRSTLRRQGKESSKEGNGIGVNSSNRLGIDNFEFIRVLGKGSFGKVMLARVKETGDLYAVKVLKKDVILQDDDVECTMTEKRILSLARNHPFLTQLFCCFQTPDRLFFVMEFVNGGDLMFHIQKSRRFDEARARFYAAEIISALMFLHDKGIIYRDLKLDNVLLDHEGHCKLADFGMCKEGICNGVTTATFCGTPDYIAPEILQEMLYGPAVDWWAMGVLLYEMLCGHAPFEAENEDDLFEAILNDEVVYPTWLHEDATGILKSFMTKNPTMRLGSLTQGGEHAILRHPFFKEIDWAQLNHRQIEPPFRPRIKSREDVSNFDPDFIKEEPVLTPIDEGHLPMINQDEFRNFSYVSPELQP
Outline: as §1

IRAK1 = molecular target: T12, IRAK1 (Homo sapiens, UniProt P51617)
T12 construct: purchased Millipore, Inc. (KinaseProfiler service)
T12 sequence (P51617 whole entry): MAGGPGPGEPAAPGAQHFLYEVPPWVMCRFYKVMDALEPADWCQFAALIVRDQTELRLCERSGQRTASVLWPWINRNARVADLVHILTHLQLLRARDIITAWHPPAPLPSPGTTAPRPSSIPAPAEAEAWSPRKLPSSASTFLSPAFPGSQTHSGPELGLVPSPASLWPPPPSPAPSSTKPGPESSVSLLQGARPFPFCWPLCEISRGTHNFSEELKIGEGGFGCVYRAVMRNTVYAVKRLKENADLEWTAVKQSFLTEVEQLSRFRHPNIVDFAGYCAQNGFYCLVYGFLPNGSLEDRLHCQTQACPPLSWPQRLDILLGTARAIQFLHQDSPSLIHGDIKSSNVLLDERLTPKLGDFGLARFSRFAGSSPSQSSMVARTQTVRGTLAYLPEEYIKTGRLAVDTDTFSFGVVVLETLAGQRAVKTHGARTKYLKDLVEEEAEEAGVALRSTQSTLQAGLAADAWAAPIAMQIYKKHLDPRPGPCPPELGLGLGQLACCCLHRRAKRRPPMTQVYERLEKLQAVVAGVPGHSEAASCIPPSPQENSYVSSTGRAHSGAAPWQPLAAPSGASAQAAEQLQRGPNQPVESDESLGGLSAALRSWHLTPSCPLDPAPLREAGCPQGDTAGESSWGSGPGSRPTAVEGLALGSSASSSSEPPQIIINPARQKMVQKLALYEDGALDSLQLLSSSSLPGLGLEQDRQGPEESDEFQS
Outline: as §1

PTK5 = molecular target: T13, PTK5 (Homo sapiens, UniProt P42685)
T13 construct: purchased Millipore, Inc. (KinaseProfiler service)
Outline: as §1

AKT3 = molecular target: T14, AKT3 (Homo sapiens, UniProt Q9Y243)
T14 construct: purchased Millipore, Inc. (KinaseProfiler service)
T14 sequence (Q9Y243 whole entry): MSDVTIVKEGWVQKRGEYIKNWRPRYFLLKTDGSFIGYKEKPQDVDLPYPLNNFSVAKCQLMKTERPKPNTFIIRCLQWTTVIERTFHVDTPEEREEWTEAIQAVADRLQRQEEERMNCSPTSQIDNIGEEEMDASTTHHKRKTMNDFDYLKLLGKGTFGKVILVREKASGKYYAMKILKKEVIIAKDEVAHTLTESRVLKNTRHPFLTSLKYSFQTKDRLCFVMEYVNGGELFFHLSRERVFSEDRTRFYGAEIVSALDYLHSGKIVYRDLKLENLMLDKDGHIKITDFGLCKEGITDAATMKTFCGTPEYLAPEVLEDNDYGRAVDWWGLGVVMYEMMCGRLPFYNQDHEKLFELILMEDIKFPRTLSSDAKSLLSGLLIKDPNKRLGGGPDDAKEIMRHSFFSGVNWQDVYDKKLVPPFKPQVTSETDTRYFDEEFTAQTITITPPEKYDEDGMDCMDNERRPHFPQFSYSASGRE
Outline: as §1

PDGFRalpha = molecular target: T15, PDGFRalpha (Homo sapiens, UniProt P16234)
T15 construct: purchased Millipore, Inc. (KinaseProfiler service)
T15 sequence (P16234 24-1089): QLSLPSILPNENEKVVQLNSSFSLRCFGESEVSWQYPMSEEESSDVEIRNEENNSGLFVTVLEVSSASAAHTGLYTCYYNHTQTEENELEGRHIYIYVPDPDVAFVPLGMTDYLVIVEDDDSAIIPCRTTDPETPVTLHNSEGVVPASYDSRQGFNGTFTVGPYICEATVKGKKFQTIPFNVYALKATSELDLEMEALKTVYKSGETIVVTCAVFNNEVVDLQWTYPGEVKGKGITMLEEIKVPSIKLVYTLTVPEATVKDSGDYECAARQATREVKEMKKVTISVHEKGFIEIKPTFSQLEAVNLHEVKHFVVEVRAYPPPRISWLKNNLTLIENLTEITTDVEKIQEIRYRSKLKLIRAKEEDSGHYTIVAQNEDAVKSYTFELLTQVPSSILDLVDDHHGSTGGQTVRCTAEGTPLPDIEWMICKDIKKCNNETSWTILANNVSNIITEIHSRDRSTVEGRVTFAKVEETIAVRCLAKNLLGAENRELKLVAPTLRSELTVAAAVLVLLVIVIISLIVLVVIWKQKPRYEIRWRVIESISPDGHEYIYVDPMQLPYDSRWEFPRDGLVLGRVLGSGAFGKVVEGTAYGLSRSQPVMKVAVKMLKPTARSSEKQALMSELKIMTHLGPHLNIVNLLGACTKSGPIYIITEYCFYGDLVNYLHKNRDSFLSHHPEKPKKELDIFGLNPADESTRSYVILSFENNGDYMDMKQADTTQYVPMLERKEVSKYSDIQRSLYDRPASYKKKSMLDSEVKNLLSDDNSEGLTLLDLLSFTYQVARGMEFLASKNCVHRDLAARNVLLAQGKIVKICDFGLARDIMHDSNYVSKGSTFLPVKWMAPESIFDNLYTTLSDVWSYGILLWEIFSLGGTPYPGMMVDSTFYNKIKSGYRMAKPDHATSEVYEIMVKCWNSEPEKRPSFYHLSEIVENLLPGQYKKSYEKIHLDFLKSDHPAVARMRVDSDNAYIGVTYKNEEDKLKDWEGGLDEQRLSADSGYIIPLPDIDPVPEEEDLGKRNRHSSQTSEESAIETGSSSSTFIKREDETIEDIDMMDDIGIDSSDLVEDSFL
Outline: as §1

PDK1 = molecular target: T16, PDK1 (Homo sapiens, UniProt O15530)
T16 construct: purchased Millipore, Inc. (KinaseProfiler service)
Outline: as §1

DRAK1 = molecular target: T17, DRAK1 (Homo sapiens, UniProt Q9UEE5)
T17 construct: purchased Millipore, Inc. (KinaseProfiler service)
Outline: as §1

HIPK1 = molecular target: T18, HIPK1 (Homo sapiens, UniProt Q86Z02)
T18 construct: purchased Millipore, Inc. (KinaseProfiler service)
Outline: as §1

HIPK2 = molecular target: T19, HIPK2 (Homo sapiens, UniProt Q9H2X6)
T19 construct: purchased Millipore, Inc. (KinaseProfiler service)
Outline: as §1

Rsk3 = molecular target: T20, Rsk3 (Homo sapiens, UniProt Q15349)
T20 construct: purchased Millipore, Inc. (KinaseProfiler service)
Outline: as §1

FGFR4 = molecular target: T21, FGFR4 (Homo sapiens, UniProt P22455)
T21 construct: purchased Millipore, Inc. (KinaseProfiler service)
Outline: as §1

TEC Activated = molecular target: T22, TEC Activated (Homo sapiens, UniProt P42680)
T22 construct: purchased Millipore, Inc. (KinaseProfiler service)
Outline: as §1

MKK6 = molecular target: T23, MKK6 (Homo sapiens, UniProt P52564)
T23 construct: purchased Millipore, Inc. (KinaseProfiler service)
T23 sequence (P52564 whole entry): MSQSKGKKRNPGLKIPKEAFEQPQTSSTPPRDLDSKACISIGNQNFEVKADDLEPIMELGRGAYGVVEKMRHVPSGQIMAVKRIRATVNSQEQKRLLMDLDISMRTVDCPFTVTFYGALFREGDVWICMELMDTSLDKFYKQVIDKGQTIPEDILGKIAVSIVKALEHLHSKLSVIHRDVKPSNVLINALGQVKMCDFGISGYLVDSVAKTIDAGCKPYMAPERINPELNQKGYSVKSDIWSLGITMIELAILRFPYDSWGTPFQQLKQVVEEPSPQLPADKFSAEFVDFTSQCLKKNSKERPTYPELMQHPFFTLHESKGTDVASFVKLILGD
Outline: as §1

GSK3alpha = molecular target: T24, GSK3alpha (Homo sapiens, UniProt P49840)
T24 construct: purchased Millipore, Inc. (KinaseProfiler service)
Outline: as §1

LKB1 = molecular target: T25, LKB1 (Homo sapiens, UniProt Q15831)
T25 construct: purchased Millipore, Inc. (KinaseProfiler service)
Outline: as §1

Fms = molecular target: T26, Fms (Homo sapiens, UniProt P07333)
T26 construct: purchased Millipore, Inc. (KinaseProfiler service)
Outline: as §1

Fgr = molecular target: T27, Fgr (Homo sapiens, UniProt P09769)
T27 construct: purchased Millipore, Inc. (KinaseProfiler service)
Outline: as §1

FGFR3 = molecular target: T28, FGFR3 (Homo sapiens, UniProt P22607)
T28 construct: purchased Millipore, Inc. (KinaseProfiler service)
Outline: as §1

TLK2 = molecular target: T29, TLK2 (Homo sapiens, UniProt Q86UE8)
T29 construct: purchased Millipore, Inc. (KinaseProfiler service)
Outline: as §1

ITK = molecular target: T30, ITK (Homo sapiens, UniProt Q08881)
T30 construct: purchased Millipore, Inc. (KinaseProfiler service)
T30 sequence (Q08881 whole entry): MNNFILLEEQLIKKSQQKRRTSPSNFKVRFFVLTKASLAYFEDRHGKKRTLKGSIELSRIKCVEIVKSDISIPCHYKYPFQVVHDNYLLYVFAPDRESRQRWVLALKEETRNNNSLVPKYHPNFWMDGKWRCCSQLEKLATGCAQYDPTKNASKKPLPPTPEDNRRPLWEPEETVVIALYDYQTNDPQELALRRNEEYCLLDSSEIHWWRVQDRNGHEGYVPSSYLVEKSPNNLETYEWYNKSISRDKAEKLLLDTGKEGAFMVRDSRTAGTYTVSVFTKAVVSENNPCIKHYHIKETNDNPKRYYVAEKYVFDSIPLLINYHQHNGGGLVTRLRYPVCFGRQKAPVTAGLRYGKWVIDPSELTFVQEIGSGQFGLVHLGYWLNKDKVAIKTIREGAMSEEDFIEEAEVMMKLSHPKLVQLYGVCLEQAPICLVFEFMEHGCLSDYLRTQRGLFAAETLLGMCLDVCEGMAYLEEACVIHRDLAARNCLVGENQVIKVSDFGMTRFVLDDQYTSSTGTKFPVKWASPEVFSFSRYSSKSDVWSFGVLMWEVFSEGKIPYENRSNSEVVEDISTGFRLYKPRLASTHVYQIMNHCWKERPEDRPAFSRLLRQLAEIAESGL
Outline: as §1

EphA1 = molecular target: T31, EphA1 (Homo sapiens, UniProt P21709)
T31 construct: purchased Millipore, Inc. (KinaseProfiler service)
Outline: as §1

RIPK2 = molecular target: T32, RIPK2 (Homo sapiens, UniProt O43353)
T32 construct: purchased Millipore, Inc. (KinaseProfiler service)
Outline: as §1

SGK3 = molecular target: T33, SGK3 (Homo sapiens, UniProt Q96BR1)
T33 construct: purchased Millipore, Inc. (KinaseProfiler service)
Outline: as §1

CK1gamma1 = molecular target: T34, CK1gamma1 (Homo sapiens, UniProt Q9HCP0)
T34 construct: purchased Millipore, Inc. (KinaseProfiler service)
Outline: as §1

Ret = molecular target: T35, Ret (Homo sapiens, UniProt P07949)
T35 construct: purchased Millipore, Inc. (KinaseProfiler service)
Outline: as §1

JNK1alpha1 = molecular target: T36, JNK1alpha1 (Homo sapiens, UniProt P45983)
T36 construct: purchased Millipore, Inc. (KinaseProfiler service)
T36 sequence (P45983 1-384 isoform P45983-2): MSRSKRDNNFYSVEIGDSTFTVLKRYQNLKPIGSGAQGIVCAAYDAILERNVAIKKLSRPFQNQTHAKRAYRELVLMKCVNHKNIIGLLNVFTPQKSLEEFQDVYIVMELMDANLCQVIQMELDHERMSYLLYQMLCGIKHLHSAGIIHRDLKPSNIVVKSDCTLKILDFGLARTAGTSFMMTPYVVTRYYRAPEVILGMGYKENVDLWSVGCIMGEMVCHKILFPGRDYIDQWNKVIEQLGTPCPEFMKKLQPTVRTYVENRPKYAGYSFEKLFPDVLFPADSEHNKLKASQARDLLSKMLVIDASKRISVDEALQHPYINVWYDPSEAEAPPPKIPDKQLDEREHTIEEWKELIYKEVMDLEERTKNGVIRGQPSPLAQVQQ
Outline: as §1

PAK5 = molecular target: T37, PAK5 (Homo sapiens, UniProt Q9P286)
T37 construct: purchased Millipore, Inc. (KinaseProfiler service)
T37 sequence (Q9P286 whole entry): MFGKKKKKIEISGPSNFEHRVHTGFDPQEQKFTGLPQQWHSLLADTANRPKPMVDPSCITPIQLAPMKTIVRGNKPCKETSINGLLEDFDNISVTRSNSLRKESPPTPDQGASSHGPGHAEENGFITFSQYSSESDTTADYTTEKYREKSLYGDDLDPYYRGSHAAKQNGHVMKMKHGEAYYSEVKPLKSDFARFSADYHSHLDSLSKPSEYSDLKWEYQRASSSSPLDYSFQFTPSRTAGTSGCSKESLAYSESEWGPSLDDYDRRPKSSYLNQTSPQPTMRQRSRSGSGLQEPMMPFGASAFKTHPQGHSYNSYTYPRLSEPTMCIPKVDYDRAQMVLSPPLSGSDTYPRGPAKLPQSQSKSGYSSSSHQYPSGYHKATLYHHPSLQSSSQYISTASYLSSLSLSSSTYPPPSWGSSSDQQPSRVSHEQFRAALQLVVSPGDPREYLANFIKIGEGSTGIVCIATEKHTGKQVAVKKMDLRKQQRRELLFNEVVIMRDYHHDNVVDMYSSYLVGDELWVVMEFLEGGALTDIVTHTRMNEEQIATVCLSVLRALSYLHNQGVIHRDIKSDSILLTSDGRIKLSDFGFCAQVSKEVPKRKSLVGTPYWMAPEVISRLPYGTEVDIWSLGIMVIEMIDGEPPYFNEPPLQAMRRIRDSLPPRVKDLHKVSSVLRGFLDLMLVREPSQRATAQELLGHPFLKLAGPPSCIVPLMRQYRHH
Outline: as §1

LOK = molecular target: T38, LOK (Homo sapiens, UniProt O94804)
T38 construct: purchased Millipore, Inc. (KinaseProfiler service)
Outline: as §1

IR Activated = molecular target: T39, IR Activated (Homo sapiens, UniProt P06213)
T39 construct: purchased Millipore, Inc. (KinaseProfiler service)
Outline: as §1

MKNK2 = molecular target: T40, MKNK2 (Homo sapiens, UniProt Q9HBH9)
T40 construct: purchased Millipore, Inc. (KinaseProfiler service)
Outline: as §1

MAPKAP-K3 = molecular target: T41, MAPKAP-K3 (Homo sapiens, UniProt Q16644)
T41 construct: purchased Millipore, Inc. (KinaseProfiler service)
Outline: as §1

Avg POC (CAMK1d): 134.5 POC | Avg POC (Lck): 103 POC | Avg POC (JNK2alpha2): 126.5 POC | Avg POC (IRR): 102.5 POC | Avg POC (SGK1): 169.5 POC | Avg POC (TrkB): 9 POC | Avg POC (EphA3): 139.5 POC | Avg POC (AKT1): 129 POC | Avg POC (MINK): 118.5 POC | Avg POC (CAMK2b): 105 POC | Avg POC (PKCeta): 122 POC | Avg POC (IRAK1): 125 POC | Avg POC (PTK5): 118.5 POC | Avg POC (AKT3): 130.5 POC | Avg POC (PDGFRalpha): 132 POC | Avg POC (PDK1): 117.5 POC | Avg POC (DRAK1): 136 POC | Avg POC (HIPK1): 119 POC | Avg POC (HIPK2): 97 POC | Avg POC (Rsk3): 106.5 POC | Avg POC (FGFR4): 129 POC | Avg POC (TEC Activated): 121.5 POC | Avg POC (MKK6): 94.5 POC | Avg POC (GSK3alpha): 125 POC | Avg POC (LKB1): 111 POC | Avg POC (Fms): 125.5 POC | Avg POC (Fgr): 116 POC | Avg POC (FGFR3): 122 POC | Avg POC (TLK2): 106 POC | Avg POC (ITK): 131 POC | Avg POC (EphA1): 104.5 POC | Avg POC (RIPK2): 107 POC | Avg POC (SGK3): 131.5 POC | Avg POC (CK1gamma1): 115.5 POC | Avg POC (Ret): 115 POC | Avg POC (JNK1alpha1): 111.5 POC | Avg POC (PAK5): 122.5 POC | Avg POC (LOK): 120.5 POC | Avg POC (IR Activated): 102.5 POC | Avg POC (MKNK2): 118.5 POC | Avg POC (MAPKAP-K3): 126.5 POC
Structure (SMILES): COCc1ccc2cccc(NC(=O)Nc3c(C)c(-c4cnn(C)c4)nn3-c3ccccc3)c2c1 [Example 16, 1-(1′,4-dimethyl-1-phenyl-1H,1′H-[3,4′-bipyrazol]-5-yl)-3-(7-(methoxymethyl)naphthalen-1-yl)urea]
